IC50 data for three compounds are collected here from patent publication US4970215A, “Substituted 4-(quinolin-2-yl-methoxy)phenyl-acetic acid derivatives and anti-allergic use thereof” (Bayer Aktiengesellschaft, priority 1988, dated 1990).

For the experiment, the system named is lipoxygenase. The experiment can be described thus: Lipoxygenase inhibition: release of leucotriene B4 (LTB4) from polymorphonuclear rat leucocytes (PMN) after Ca-ionophor, reverse phase HPLC. Type of experiment: cell-based. Particulars: RP-HPLC, read-out: LO inhibition IC50. On the procedure: The release of leucotriene B4 (LTB4) from polymorphonuclear rat leucocytes (PMN) following addition of substances and a Ca-ionophor was determined by means of reverse phase HPLC by the method of Borgeat, P. et al., Proc. Nat. Acad. Sci. (USA) 76, 2148-2152 (1979) as a measure of lipoxygenase inhibition. The values achieved in this test with some compounds according to the invention are listed by way of example in Table 1: […]
Consider `O=C(O)C(CC1CC1)c1ccc(OCc2ccc3ccccc3n2)cc1` (stereo not drawn) [Example 7, 2-[4-(Quinolin-2-yl-methoxy)phenyl]-3-cyclopropylpropionic acid], for which the IC50 was 140 nM.

As for `O=C(O)C(c1ccc(OCc2ccc3ccccc3n2)cc1)C1CCCC1` (stereo not drawn) [Example 9, 2-[4-(Quinolin-2-yl-methoxy)phenyl]-2-cyclopentylacetic acid], the IC50 came to 40 nM.

Regarding `O=C(O)C(CC1CCCCC1)c1ccc(OCc2ccc3ccccc3n2)cc1` (stereo not drawn) [Example 8, 2-[4-(Quinolin-2-yl-methoxy)phenyl]-3-cyclohexylpropionic acid], the IC50 worked out at 10 nM.
